Source: US20110118116A1, “Azolin-2-ylamino Compounds for Combating Animal Pests” (priority 2008, published 2011)

Experiments:
Type in all cases: in vivo
[1] = system: Cowpea Aphid (Aphis craccivora); assay: Cowpea aphid test, colonized potted cowpea plants sprayed; conditions: spray, population reduction recorded after 24, 72 and 120 hours, read-out: mortality in comparison with untreated controls
Procedure: III. Cowpea Aphid (Aphis craccivora)
(§1) The active compounds were formulated in 50:50 acetone: water and 100 ppm Kinetic® surfactant.
Potted cowpea plants colonized with 100-150 aphids of various stages were sprayed after the pest population has been recorded. Population reduction was recorded after 24, 72, and 120 hours.

[2] = system: Cotton Aphid (Aphis gossypii); assay: Cotton aphid test, cotyledons of infested cotton plants dipped; conditions: 120 h, dip, aphid mortality determined after 5 days, read-out: mortality in comparison with untreated controls
Procedure: I. Cotton Aphid (Aphis gossypii)
as §1
(§2) Cotton plants in the cotyledon stage (variety ‘Delta Pine’) are infested with approximately 100 laboratory-reared aphids by placing infested leaf sections on top of the test plants. The leaf sections are removed after 24 hours. The cotyledons of the intact plants are dipped into gradient solutions of the test compound. Aphid mortality on the treated plants, relative to mortality on check plants, is determined after 5 days.

[3] = system: Green Peach Aphid (Myzus persicae); assay: Green peach aphid test, leaves of infested pepper plants dipped; conditions: 120 h, dip, aphid mortality determined after 5 days, read-out: mortality in comparison with untreated controls
Procedure: II. Green Peach Aphid (Myzus persicae)
as §1
as §2, with “Pepper” for “Cotton”, “2nd leaf-pair” for “cotyledon”, “‘California Wonder’)” for “‘Delta Pine’)”, “40” for “100”, “leaves” for “cotyledons”

[4] = system: Silverleaf Whitefly; assay: Silverleaf whitefly test, cotton cotyledons dipped, adults introduced; conditions: Bemisia argentifolii, 72 h, cotton plants, dip, mortality assessed 3 days after treatment, read-out: mortality in comparison with untreated controls
Procedure: as §1
Selected cotton plants were grown to the cotyledon state (one plant per pot). The cotyledons were dipped into the test solution to provide complete coverage of the foliage and placed in a well-vented area to dry. Each pot with treated seedling was placed in a plastic cup and 10 to 12 whitefly adults (approximately 3-5 day old) were introduced. The insects were colleted using an aspirator and a 0.6 cm, non-toxic Tygon® tubing (R-3603) connected to a barrier pipette tip. The tip, containing the collected insects, was then gently inserted into the soil containing the treated plant, allowing insects to crawl out of the tip to reach the foliage for feeding. The cups were covered with a re-usable screened lid (150 micron mesh polyester screen PeCap from Tetko Inc). Test plants were maintained in the holding room at about 25 °C and 20-40% relative humidity for 3 days avoiding direct exposure to the fluorescent light (24 hour photoperiod) to prevent trapping of heat inside the cup. Mortality was assessed 3 days after treatment of the plants.

Structure (SMILES): Cc1cccc(C#CCC(NC(=S)NCCO)c2cccc(C)c2C)c1 (stereo not drawn) [Example 2, 1-[1-(2,3-dimethyl-phenyl)-4-m-tolyl-but-3-ynyl]-3-(2-hydroxy-ethyl)-thiourea]
- mortality at 300 ppm [1]: > 70%

Structure (SMILES): Cc1cccc(C#CCC(NC2=NCCS2)c2cccc(C)c2C)c1 (stereo not drawn) [Example 13, (4,5-dihydro-thiazol-2-yl)-[1-(2,3-dimethyl-phenyl)-4-m-tolyl-but-3-ynyl]-amine]
- mortality at 300 ppm [2]: > 70%
- mortality at 300 ppm [3]: > 70%
- mortality at 300 ppm [1]: > 70%
- mortality at 300 ppm [4]: > 70%

Structure (SMILES): C#CCC(NC1=NCCS1)c1cccc(C)c1C (stereo not drawn) [Example 14, (4,5-dihydro-thiazol-2-yl)-[1-(2,3-dimethyl-phenyl)-but-3-ynyl]-amine]
- mortality at 300 ppm [1]: > 70%

Structure (SMILES): Cc1cccc(C(CC#Cc2cccc(Cl)c2)NC2=NCCS2)c1C (stereo not drawn) [Example 15, [4-(3-chloro-phenyl)-1-(2,3-dimethyl-phenyl)-but-3-ynyl]-(4,5-dihydro-thiazol-2-yl)-amine]
- mortality at 300 ppm [2]: > 70%
- mortality at 300 ppm [3]: > 70%
- mortality at 300 ppm [1]: > 70%
